Experimental data reported in patent publication US11472791B2 (Incyte Corporation, priority 2019, dated 2022).

Target: CDK2/Cyclin E1 (Homo sapiens (Human), UniProt P24941)
Test: CDK2/Cyclin E1 HTRF enzyme activity assay
Format: biochemical
Settings: 1 mM ATP
Protocol: Assays are conducted in white 384-well polystyrene plates in a final reaction volume of 8 μL. […] HTRF signals are read after 1 hour at room temperature on a PHERAstar FS plate reader (BMG Labtech). Data is analyzed with IDBS XLFit and GraphPad Prism 5.0 software using a three or four parameter dose response curve to determine IC50 for each compound.

| SMILES | IC50 [nM] |
| --- | --- |
| CC(C)(O)Cn1cc(-c2nc(NC3CCN(S(=O)(=O)CCCN4C[C@@H]5C[C@H]4CO5)CC3)ncc2C(F)(F)F)cn1 [Example 222, 1-(4-(2-((1-((3-((1S,4S)-2-Oxa-5-azabicyclo[2.2.1]heptan-5-yl)propyl)sulfonyl)piperidin-4-yl)amino)-5-(trifluoromethyl)pyrimidin-4-yl)-1H-pyrazol-1-yl)-2-methylpropan-2-ol] | < 50 |
| CC(C)(O)Cn1cc(-c2nc(NC3CCN(S(=O)(=O)CCCN4CC[C@@](C)(O)C4)CC3)ncc2C(F)(F)F)cn1 [Example 223, (R)-1-(3-((4-((4-(1-(2-Hydroxy-2-methylpropyl)-1H-pyrazol-4-yl)-5-(trifluoromethyl)pyrimidin-2-yl)amino)piperidin-1-yl)sulfonyl)propyl)-3-methylpyrrolidin-3-ol] | < 50 |
| CC(C)(O)Cn1cc(-c2nc(NC3CCN(S(=O)(=O)CCCN4CC[C@@H](O)C4)CC3)ncc2C(F)(F)F)cn1 [Example 224, (R)-1-(3-((4-((4-(1-(2-Hydroxy-2-methylpropyl)-1H-pyrazol-4-yl)-5-(trifluoromethyl)pyrimidin-2-yl)amino)piperidin-1-yl)sulfonyl)propyl)pyrrolidin-3-ol] | < 50 |
| CC(C)(O)Cn1cc(-c2nc(NC3CCN(S(=O)(=O)CCCN4CC(O)C4)CC3)ncc2C(F)(F)F)cn1 [Example 225, 1-(3-((4-((4-(1-(2-Hydroxy-2-methylpropyl)-1H-pyrazol-4-yl)-5-(trifluoromethyl)pyrimidin-2-yl)amino)piperidin-1-yl)sulfonyl)propyl)azetidin-3-ol] | < 50 |
| CC(C)(O)Cn1cc(-c2nc(NC3CCN(S(=O)(=O)CCCNC4CC4)CC3)ncc2C(F)(F)F)cn1 [Example 226, 1-(4-(2-((1-((3-(Cyclopropylamino)propyl)sulfonyl)piperidin-4-yl)amino)-5-(trifluoromethyl)pyrimidin-4-yl)-1H-pyrazol-1-yl)-2-methylpropan-2-ol] | < 50 |
| CC(C)(O)Cn1cc(-c2nc(NC3CCN(S(=O)(=O)CCO)CC3)ncc2C(F)(F)F)cn1 [Example 227, 1-(4-(2-((1-((2-Hydroxyethyl)sulfonyl)piperidin-4-yl)amino)-5-(trifluoromethyl)pyrimidin-4-yl)-1H-pyrazol-1-yl)-2-methylpropan-2-ol] | < 50 |
| Cc1cc(CN2CCNCC2)ccc1-n1cc(-c2nc(NC3CCN(S(=O)(=O)c4cn(C)cn4)CC3)ncc2C(F)(F)F)cn1 [Example 228, N-(1-((1-Methyl-1H-imidazol-4-yl)sulfonyl)piperidin-4-yl)-4-(1-(2-methyl-4-(piperazin-1-ylmethyl)phenyl)-1H-pyrazol-4-yl)-5-(trifluoromethyl)pyrimidin-2-amine] | < 50 |
| Cc1cc(CN2CCN(C)[C@@H](CO)C2)ccc1-n1cc(-c2nc(NC3CCN(S(=O)(=O)c4cn(C)cn4)CC3)ncc2C(F)(F)F)cn1 [Example 229, (R)-(1-Methyl-4-(3-methyl-4-(4-(2-((1-((1-methyl-1H-imidazol-4-yl)sulfonyl)piperidin-4-yl)amino)-5-(trifluoromethyl)pyrimidin-4-yl)-1H-pyrazol-1-yl)benzyl)piperazin-2-yl)methanol] | < 50 |
| Cc1cc(CN2CCN(C)[C@@H](CC#N)C2)ccc1-n1cc(-c2nc(NC3CCN(S(=O)(=O)c4cn(C)cn4)CC3)ncc2C(F)(F)F)cn1 [Example 230, (S)-2-(1-Methyl-4-(3-methyl-4-(4-(2-((1-((1-methyl-1H-imidazol-4-yl)sulfonyl)piperidin-4-yl)amino)-5-(trifluoromethyl)pyrimidin-4-yl)-1H-pyrazol-1-yl)benzyl)piperazin-2-yl)acetonitrile] | < 50 |
| Cc1cc(CN2CCN(C)CC2)ccc1-n1cc(-c2nc(NC3CCN(S(C)(=O)=O)CC3)ncc2C(F)(F)F)cn1 [Example 231, 4-(1-(2-Methyl-4-((4-methylpiperazin-1-yl)methyl)phenyl)-1H-pyrazol-4-yl)-N-(1-(methylsulfonyl)piperidin-4-yl)-5-(trifluoromethyl)pyrimidin-2-amine] | < 50 |
| CCN1CCN(Cc2ccc(-n3cc(-c4nc(NC5CCN(S(C)(=O)=O)CC5)ncc4C(F)(F)F)cn3)c(C)c2)CC1 [Example 232, 4-(1-(4-((4-Ethylpiperazin-1-yl)methyl)-2-methylphenyl)-1H-pyrazol-4-yl)-N-(1-(methylsulfonyl)piperidin-4-yl)-5-(trifluoromethyl)pyrimidin-2-amine] | < 50 |
| CCS(=O)(=O)N1CCC(Nc2ncc(C(F)(F)F)c(-c3cnn(-c4ccc(CN5CCN(C)CC5)cc4C)c3)n2)CC1 [Example 233, N-(1-(Ethylsulfonyl)piperidin-4-yl)-4-(1-(2-methyl-4-((4-methylpiperazin-1-yl)methyl)phenyl)-1H-pyrazol-4-yl)-5-(trifluoromethyl)pyrimidin-2-amine] | < 50 |
| Cc1cc(CN2CCN(C)CC2)ccc1-n1cc(-c2nc(NC3CCN(S(=O)(=O)C4CC4)CC3)ncc2C(F)(F)F)cn1 [Example 234, N-(1-(Cyclopropylsulfonyl)piperidin-4-yl)-4-(1-(2-methyl-4-((4-methylpiperazin-1-yl)methyl)phenyl)-1H-pyrazol-4-yl)-5-(trifluoromethyl)pyrimidin-2-amine] | < 50 |
| CCN1CCN(Cc2ccc(-n3cc(-c4nc(NC5CCN(S(=O)(=O)c6cn(C)cn6)CC5)ncc4C(F)(F)F)cn3)c(C)c2)CC1 [Example 235, 4-(1-(4-((4-Ethylpiperazin-1-yl)methyl)-2-methylphenyl)-1H-pyrazol-4-yl)-N-(1-((1-methyl-1H-imidazol-4-yl)sulfonyl)piperidin-4-yl)-5-(trifluoromethyl)pyrimidin-2-amine] | < 50 |
| Cc1cc(CN2CCN(CC3CC3)CC2)ccc1-n1cc(-c2nc(NC3CCN(S(=O)(=O)c4cn(C)cn4)CC3)ncc2C(F)(F)F)cn1 [Example 236, 4-(1-(4-((4-(Cyclopropylmethyl)piperazin-1-yl)methyl)-2-methylphenyl)-1H-pyrazol-4-yl)-N-(1-((1-methyl-1H-imidazol-4-yl)sulfonyl)piperidin-4-yl)-5-(trifluoromethyl)pyrimidin-2-amine] | < 50 |
| Cc1cc(CN2CCN(C)C(=O)C2)ccc1-n1cc(-c2nc(NC3CCN(S(=O)(=O)c4cn(C)cn4)CC3)ncc2C(F)(F)F)cn1 [Example 237, 1-Methyl-4-(3-methyl-4-(4-(2-((1-((1-methyl-1H-imidazol-4-yl)sulfonyl)piperidin-4-yl)amino)-5-(trifluoromethyl)pyrimidin-4-yl)-1H-pyrazol-1-yl)benzyl)piperazin-2-one] | < 50 |
| CCN1CCN(Cc2ccc(-n3cc(-c4nc(NC5CCN(S(C)(=O)=O)CC5)ncc4C#N)cn3)c(Cl)c2)CC1 [Example 238, 4-(1-(2-Chloro-4-((4-ethylpiperazin-1-yl)methyl)phenyl)-1H-pyrazol-4-yl)-2-((1-(methylsulfonyl)piperidin-4-yl)amino)pyrimidine-5-carbonitrile] | < 50 |
| CCS(=O)(=O)N1CCC(Nc2ncc(C#N)c(-c3cnn(-c4ccc(CN5CCN(C)CC5)cc4Cl)c3)n2)CC1 [Example 239, 4-(1-(2-chloro-4-((4-methylpiperazin-1-yl)methyl)phenyl)-1H-pyrazol-4-yl)-2-((1-(ethylsulfonyl)piperidin-4-yl)amino)pyrimidine-5-carbonitrile] | < 50 |
| CN1CCN(Cc2ccc(-n3cc(-c4nc(NC5CCN(S(C)(=O)=O)CC5)ncc4C#N)cn3)c(Cl)c2)CC1=O [Example 240, 4-(1-(2-Chloro-4-((4-methyl-3-oxopiperazin-1-yl)methyl)phenyl)-1H-pyrazol-4-yl)-2-((1-(methylsulfonyl)piperidin-4-yl)amino)pyrimidine-5-carbonitrile] | < 50 |
| CCN1CCN(Cc2ccc(-n3cc(-c4nc(NC5CCN(S(=O)(=O)c6cn(C)cn6)CC5)ncc4C#N)cn3)c(Cl)c2)CC1 [Example 241, 4-(1-(2-Chloro-4-((4-ethylpiperazin-1-yl)methyl)phenyl)-1H-pyrazol-4-yl)-2-((1-((1-methyl-1H-imidazol-4-yl)sulfonyl)piperidin-4-yl)amino)pyrimidine-5-carbonitrile] | < 50 |
| Cc1cc(CN2CCN(C)CC2)ccc1-n1cc(-c2nc(NC3CCN(S(=O)(=O)C4CC4)CC3)ncc2C#N)cn1 [Example 242, 2-((1-(Cyclopropylsulfonyl)piperidin-4-yl)amino)-4-(1-(2-methyl-4-((4-methylpiperazin-1-yl)methyl)phenyl)-1H-pyrazol-4-yl)pyrimidine-5-carbonitrile] | < 50 |
| Cc1cc(CN2CCN(C)CC2)ccc1-n1cc(-c2nc(NC3CCN(S(=O)(=O)c4cn(C)cn4)CC3)ncc2C#N)cn1 [Example 243, 2-((1-((1-Methyl-1H-imidazol-4-yl)sulfonyl)piperidin-4-yl)amino)-4-(1-(2-methyl-4-((4-methylpiperazin-1-yl)methyl)phenyl)-1H-pyrazol-4-yl)pyrimidine-5-carbonitrile] | < 50 |
| CN1CCN(Cc2ccc(-n3cc(-c4nc(NC5CCN(S(=O)(=O)c6cn(C)cn6)CC5)ncc4Cl)cn3)c(C#N)c2)CC1 [Example 244, 2-(4-(5-Chloro-2-((1-((1-methyl-1H-imidazol-4-yl)sulfonyl)piperidin-4-yl)amino)pyrimidin-4-yl)-1H-pyrazol-1-yl)-5-((4-methylpiperazin-1-yl)methyl)benzonitrile] | < 50 |
| CCN1CCN(Cc2ccc(-n3cc(-c4nc(NC5CCN(S(=O)(=O)c6cn(C)cn6)CC5)ncc4Cl)cn3)c(C)c2)CC1 [Example 245, 5-Chloro-4-(1-(4-((4-ethylpiperazin-1-yl)methyl)-2-methylphenyl)-1H-pyrazol-4-yl)-N-(1-((1-methyl-1H-imidazol-4-yl)sulfonyl)piperidin-4-yl)pyrimidin-2-amine] | < 50 |
| Cc1cc(CN2CCN(CC3CC3)CC2)ccc1-n1cc(-c2nc(NC3CCN(S(=O)(=O)c4cn(C)cn4)CC3)ncc2Cl)cn1 [Example 246, 5-Chloro-4-(1-(4-((4-(cyclopropylmethyl)piperazin-1-yl)methyl)-2-methylphenyl)-1H-pyrazol-4-yl)-N-(1-((1-methyl-1H-imidazol-4-yl)sulfonyl)piperidin-4-yl)pyrimidin-2-amine] | < 50 |
